Results: patent US11040031B2, “Pyrazole derivatives as MALT1 inhibitors” (Janssen Pharmaceutica NV, priority 2018, dated 2021)
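Note: fluorogenic LRSR-AMC substrate cleavage by MALT1, 50 min compound preincubation then 4 h reaction at RT, 11-point dilution from 30 µM, scaled between enzyme-free and untreated enzyme controls.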

Each molecule was assayed against T1, full-length MALT1 protein (Strep-MALT1(1-824)-His) (Homo sapiens, UniProt Q9UDY8) (assay: biochemical).
T1 sequence (Q9UDY8 1-824): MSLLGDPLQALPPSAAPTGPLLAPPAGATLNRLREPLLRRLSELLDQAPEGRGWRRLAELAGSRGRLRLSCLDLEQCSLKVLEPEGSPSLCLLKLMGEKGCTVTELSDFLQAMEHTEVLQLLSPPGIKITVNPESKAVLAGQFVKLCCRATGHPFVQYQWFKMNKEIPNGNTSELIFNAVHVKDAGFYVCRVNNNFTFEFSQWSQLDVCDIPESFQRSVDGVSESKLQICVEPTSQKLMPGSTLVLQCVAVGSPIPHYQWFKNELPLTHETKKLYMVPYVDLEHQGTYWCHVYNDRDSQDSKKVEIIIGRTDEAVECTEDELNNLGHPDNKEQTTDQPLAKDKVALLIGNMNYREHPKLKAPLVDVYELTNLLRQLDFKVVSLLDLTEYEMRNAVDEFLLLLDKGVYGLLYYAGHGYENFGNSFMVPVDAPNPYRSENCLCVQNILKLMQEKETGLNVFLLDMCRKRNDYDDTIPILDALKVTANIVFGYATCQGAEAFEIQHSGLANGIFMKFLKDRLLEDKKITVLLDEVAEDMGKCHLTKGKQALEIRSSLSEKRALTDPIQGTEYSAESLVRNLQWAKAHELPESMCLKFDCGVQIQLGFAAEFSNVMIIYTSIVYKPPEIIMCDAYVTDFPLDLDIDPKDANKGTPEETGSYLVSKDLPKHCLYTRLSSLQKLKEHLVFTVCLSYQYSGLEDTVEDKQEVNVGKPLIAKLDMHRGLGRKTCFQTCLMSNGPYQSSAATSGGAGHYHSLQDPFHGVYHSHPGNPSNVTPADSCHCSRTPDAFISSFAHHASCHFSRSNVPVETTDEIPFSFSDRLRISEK
Description: MALT1 protease activity was assessed in an in vitro assay using a tetrapeptide as substrate and full-length MALT1 protein (Strep-MALT1(1-824)-His) purified from baculovirus-infected insect cells. The tetrapeptide LRSR is coupled to AMC (7-amino-4-methylcoumarin) and provides a quenched, fluorescent substrate for the MALT1 protease (SM Biochemicals). Cleavage of AMC from the Arginine residue results in an increase in coumarin fluorescence measured at 460 nm (excitation 355 nm). […] Test compounds were spotted at 50 nL in 100% DMSO per well of a black 384-Proxiplate (Perkin Elmer). Test compound concentrations ranged from 30 μM to 0.5 nM using 11 dilution steps (1:3). Background signal was measured from control wells containing assay buffer without enzyme which functions as low control (LC). High control (HC) values were generated using the reaction with enzyme but no compound treatment. Compounds were pre-incubated with MALT1 enzyme for 50 minutes at RT. Substrate was added subsequently and fluorescence was measured in Labsystems fluoroskan at excitation 355 nm and emission 460 nm to determine time 0. The reaction was subsequently incubated for 4 h at RT and fluorescence was measured. […] The enzyme reaction was linear during the 4 h incubation period.
IC50 values were calculated using the following formula (Z prime should be >0.5):
From this an IC50 value (inhibitory concentration causing 50% inhibition) can be obtained. An estimate of the slope of the plot in terms of the Hill coefficient was also obtained.
With y=estimated response • UB=upper bound • LB=lower bound • h=hill
`Cc1cncc(-n2ncc(C(=O)Nc3cnc(-n4nccn4)c(Cl)c3)c2C(F)(F)F)c1` [Cpd 16, N-(5-Chloro-6-(2H-1,2,3-triazol-2-yl)pyridin-3-yl)-1-(5-methylpyridin-3-yl)-5-(trifluoromethyl)-1H-pyrazole-4-carboxamide] gave an IC50 of 1700 nM. Work on `N#Cc1cncc(-n2ncc(C(=O)Nc3cnc(-n4nccn4)c(Cl)c3)c2C(F)(F)F)c1` [Cpd 17, N-(5-Chloro-6-(2H-1,2,3-triazol-2-yl)pyridin-3-yl)-1-(5-cyanopyridin-3-yl)-5-(trifluoromethyl)-1H-pyrazole-4-carboxamide] yielded an IC50 of 2090 nM. `Cc1cccc(-n2ncc(C(=O)Nc3cnc(-n4nccn4)c(Cl)c3)c2C(F)(F)F)n1` [Cpd 24, N-(5-chloro-6-(2H-1,2,3-triazol-2-yl)pyridin-3-yl)-1-(6-methylpyridin-2-yl)-5-(trifluoromethyl)-1H-pyrazole-4-carboxamide] gave an IC50 of 2090 nM. `O=C(Nc1cnc(-n2nccn2)c(Cl)c1)c1cnn(-c2ccncc2)c1C(F)F` [Cpd 25, N-(5-chloro-6-(2H-1,2,3-triazol-2-yl)pyridin-3-yl)-5-(difluoromethyl)-1-(pyridin-4-yl)-1H-pyrazole-4-carboxamide] gave an IC50 of 2950 nM. `O=C(Nc1cnc(-n2nccn2)c(Cl)c1)c1cnn(-c2ccccc2)c1F` [Cpd 26, N-(5-chloro-6-(2H-1,2,3-triazol-2-yl)pyridin-3-yl)-5-fluoro-1-phenyl-1H-pyrazole-4-carboxamide] showed an IC50 of 7080 nM. In the case of `Cc1cccc(-n2ncc(C(=O)Nc3cnc(-n4nccn4)c(Cl)c3)c2C(F)(F)F)c1` [Cpd 28, N-(5-chloro-6-(2H-1,2,3-triazol-2-yl)pyridin-3-yl)-1 (m-tolyl)-5-(trifluoromethyl)-1H-pyrazole-4-carboxamide], the IC50 is reported as 2460 nM. For `N#Cc1cc(NC(=O)c2cnn(-c3ncc(Br)cc3Cl)c2C(F)(F)F)cnc1-n1nccn1` [Cpd 30, 1-(5-bromo-3-chloropyridin-2-yl)-N-(5-cyano-6-(2H-1,2,3-triazol-2-yl)pyridin-3-yl)-5-(trifluoromethyl)-1H-pyrazole-4-carboxamide], the IC50 was 708 nM. In the case of `N#Cc1cnc(-n2ncc(C(=O)Nc3cnc(-n4nccn4)c(C#N)c3)c2C(F)(F)F)c(Cl)c1` [Cpd 31, 1-(3-chloro-5-cyanopyridin-2-yl)-N-(5-cyano-6-(2H-1,2,3-triazol-2-yl)pyridin-3-yl)-5-(trifluoromethyl)-1H-pyrazole-4-carboxamide], the IC50 is reported as 6610 nM. For `Cc1nccc(-n2ncc(C(=O)Nc3cnc(-n4nccn4)c(C#N)c3)c2C(F)(F)F)c1C#N` [Cpd 33, 1-(3-Cyano-2-methylpyridin-4-yl)-N-(5-cyano-6-(2H-1,2,3-triazol-2-yl)pyridin-3-yl)-5-(trifluoromethyl)-1H-pyrazole-4-carboxamide], the IC50 was 513 nM. Work on `N#Cc1cc(NC(=O)c2cnn(-c3ncc(F)cc3C#N)c2C(F)(F)F)cnc1-n1nccn1` [Cpd 35, 1-(3-cyano-5-fluoropyridin-2-yl)-N-(5-cyano-6-(2H-1,2,3-triazol-2-yl)pyridin-3-yl)-5-(trifluoromethyl)-1H-pyrazole-4-carboxamide] yielded an IC50 of 2240 nM. For `COc1nccc(-n2ncc(C(=O)Nc3cnc(-n4nccn4)c(C#N)c3)c2C(F)(F)F)c1C` [Cpd 38, N-(5-cyano-6-(2H-1,2,3-triazol-2-yl)pyridin-3-yl)-1-(2-methoxy-3-methylpyridin-4-yl)-5-(trifluoromethyl)-1H-pyrazole-4-carboxamide], the IC50 was 324 nM. In the case of `N#Cc1cc(NC(=O)c2cnn(-c3ccnc(Cl)c3)c2C(F)(F)F)cnc1-n1nccn1` [Cpd 39, 1-(2-chloropyridin-4-yl)-N-(5-cyano-6-(2H-1,2,3-triazol-2-yl)pyridin-3-yl)-5-(trifluoromethyl)-1H-pyrazole-4-carboxamide], the IC50 is reported as 457 nM. `N#Cc1cc(-n2ncc(C(=O)Nc3cnc(-n4nccn4)c(C#N)c3)c2C(F)(F)F)ccn1` [Cpd 40, N-(5-cyano-6-(2H-1,2,3-triazol-2-yl)pyridin-3-yl)-1-(2-cyanopyridin-4-yl)-5-(trifluoromethyl)-1H-pyrazole-4-carboxamide] was tested, and the IC50 was 1910 nM. `COc1cc(-n2ncc(C(=O)Nc3cnc(-n4nccn4)c(C#N)c3)c2C(F)(F)F)ccn1` [Cpd 41, N-(5-Cyano-6-(2H-1,2,3-triazol-2-yl)pyridin-3-yl)-1-(2-methoxypyridin-4-yl)-5-(trifluoromethyl)-1H-pyrazole-4-carboxamide] gave an IC50 of 2040 nM. Work on `Cc1nccc(-n2ncc(C(=O)Nc3cnc(-n4nccn4)c(C#N)c3)c2C(F)(F)F)c1C` [Cpd 42, N-(5-cyano-6-(2H-1,2,3-triazol-2-yl)pyridin-3-yl)-1-(2,3-dimethylpyridin-4-yl)-5-(trifluoromethyl)-1H-pyrazole-4-carboxamide] yielded an IC50 of 182 nM. In the case of `N#Cc1cnccc1-n1ncc(C(=O)Nc2cnc(-n3nccn3)c(C#N)c2)c1C(F)(F)F` [Cpd 46, N-(5-cyano-6-(2H-1,2,3-triazol-2-yl)pyridin-3-yl)-1-(3-cyanopyridin-4-yl)-5-(trifluoromethyl)-1H-pyrazole-4-carboxamide], the IC50 is reported as 479 nM. Molecule `Cc1ccnc(-n2ncc(C(=O)Nc3cnc(-n4nccn4)c(C#N)c3)c2C(F)(F)F)c1Cl` [Cpd 47, 1-(3-chloro-4-methylpyridin-2-yl)-N-(5-cyano-6-(2H-1,2,3-triazol-2-yl)pyridin-3-yl)-5-(trifluoromethyl)-1H-pyrazole-4-carboxamide] has an IC50 of 537 nM. For `COc1ccnc(-n2ncc(C(=O)Nc3cnc(-n4nccn4)c(Cl)c3)c2C(F)(F)F)c1Cl` [Cpd 65, 1-(3-chloro-4-methoxypyridin-2-yl)-N-(5-chloro-6-(2H-1,2,3-triazol-2-yl)pyridin-3-yl)-5-(trifluoromethyl)-1H-pyrazole-4-carboxamide], the IC50 was 5750 nM. `COc1ccnc(-n2ncc(C(=O)Nc3cnc(-n4nccn4)c(C#N)c3)c2C(F)(F)F)c1Cl` [Cpd 66, 1-(3-chloro-4-methoxypyridin-2-yl)-N-(5-cyano-6-(2H-1,2,3-triazol-2-yl)pyridin-3-yl)-5-(trifluoromethyl)-1H-pyrazole-4-carboxamide] showed an IC50 of 3980 nM. `O=C(Nc1cnc(-n2nccn2)c(Cl)c1)c1cnn(-c2c(Cl)cncc2Cl)c1C(F)(F)F` [Cpd 67, N-(5-chloro-6-(2H-1,2,3-triazol-2-yl)pyridin-3-yl)-1-(3,5-dichloropyridin-4-yl)-5-(trifluoromethyl)-1H-pyrazole-4-carboxamide] showed an IC50 of 525 nM. `Cc1c(F)ccc(-n2ncc(C(=O)Nc3cnc(-n4nccn4)c(Cl)c3)c2C(F)(F)F)c1Cl` [Cpd 71, 1-(2-chloro-4-fluoro-3-methylphenyl)-N-(5-chloro-6-(2H-1,2,3-triazol-2-yl)pyridin-3-yl)-5-(trifluoromethyl)-1H-pyrazole-4-carboxamide] gave an IC50 of 832 nM. In the case of `Cc1c(F)ccc(-n2ncc(C(=O)Nc3cnc(-n4nccn4)c(C#N)c3)c2C(F)(F)F)c1Cl` [Cpd 72, 1-(2-chloro-4-fluoro-3-methylphenyl)-N-(5-cyano-6-(2H-1,2,3-triazol-2-yl)pyridin-3-yl)-5-(trifluoromethyl)-1H-pyrazole-4-carboxamide], the IC50 is reported as 603 nM. `CS(=O)(=O)c1cccc(-n2ncc(C(=O)Nc3cnc(-n4nccn4)c(Cl)c3)c2C(F)(F)F)c1` [Cpd 74, N-(5-chloro-6-(2H-1,2,3-triazol-2-yl)pyridin-3-yl)-1-(3-(methylsulfonyl)phenyl)-5-(trifluoromethyl)-1H-pyrazole-4-carboxamide] was tested, and the IC50 was 2880 nM. In the case of `Cc1cc(S(C)(=O)=O)ccc1-n1ncc(C(=O)Nc2cnc(-n3nccn3)c(Cl)c2)c1C(F)(F)F` [Cpd 75, N-(5-chloro-6-(2H-1,2,3-triazol-2-yl)pyridin-3-yl)-1-(2-methyl-4-(methylsulfonyl)phenyl)-5-(trifluoromethyl)-1H-pyrazole-4-carboxamide], the IC50 is reported as 1070 nM. `CC(C)c1ccccc1-n1ncc(C(=O)Nc2cnc(-n3nccn3)c(Cl)c2)c1C(F)(F)F` [Cpd 76, N-(5-chloro-6-(2H-1,2,3-triazol-2-yl)pyridin-3-yl)-1-(2-isopropylphenyl)-5-(trifluoromethyl)-1H-pyrazole-4-carboxamide] showed an IC50 of 676 nM. Work on `Cc1c(F)ccc(-n2ncc(C(=O)Nc3cnc(-n4nccn4)c(Cl)c3)c2C(F)(F)F)c1C` [Cpd 77, N-(5-chloro-6-(2H-1,2,3-triazol-2-yl)pyridin-3-yl)-1-(4-fluoro-2,3-dimethylphenyl)-5-(trifluoromethyl)-1H-pyrazole-4-carboxamide] yielded an IC50 of 891 nM. For `O=C(Nc1cnc(-n2nccn2)c(Cl)c1)c1cnn(-c2ccc(F)c(F)c2)c1C(F)(F)F` [Cpd 78, N-(5-chloro-6-(2H-1,2,3-triazol-2-yl)pyridin-3-yl)-1-(3,4-difluorophenyl)-5-(trifluoromethyl)-1H-pyrazole-4-carboxamide], the IC50 was 646 nM. Molecule `O=C(Nc1cnc(-n2nccn2)c(Cl)c1)c1cnn(-c2cc(F)ccc2Cl)c1C(F)(F)F` [Cpd 79, 1-(2-chloro-5-fluorophenyl)-N-(5-chloro-6-(2H-1,2,3-triazol-2-yl)pyridin-3-yl)-5-(trifluoromethyl)-1H-pyrazole-4-carboxamide] has an IC50 of 380 nM.
